In patent publication US11319298B2 (Merck Sharp & Dohme Corp., priority 2016, dated 2022) one finds EC50 data, which are given here for 13 compounds.

This assay deals with T1, human M4 muscarinic acetylcholine receptor (Homo sapiens, UniProt P08173).
T1 construct: expressed in transfected cells; host or cells: CHO-K1
T1 sequence (P08173 1-479): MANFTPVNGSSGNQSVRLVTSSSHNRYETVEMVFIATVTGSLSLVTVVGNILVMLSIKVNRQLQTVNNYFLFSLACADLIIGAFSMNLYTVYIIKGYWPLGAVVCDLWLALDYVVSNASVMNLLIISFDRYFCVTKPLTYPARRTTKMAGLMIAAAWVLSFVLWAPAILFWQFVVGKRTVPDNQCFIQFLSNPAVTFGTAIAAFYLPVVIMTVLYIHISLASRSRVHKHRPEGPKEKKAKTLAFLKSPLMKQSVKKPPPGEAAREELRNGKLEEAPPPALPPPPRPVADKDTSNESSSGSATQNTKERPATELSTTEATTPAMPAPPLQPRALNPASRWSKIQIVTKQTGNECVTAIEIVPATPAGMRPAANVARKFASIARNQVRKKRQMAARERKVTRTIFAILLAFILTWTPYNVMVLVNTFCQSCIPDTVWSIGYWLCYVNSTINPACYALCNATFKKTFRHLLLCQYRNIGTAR
The assay can be described thus: human FLIPR-based M4 PAM assay, CHO-K1 cells stably transfected with human M4 receptor and chimeric G-protein Gαqi5. Format: cell-based. Conditions: inflection point (IP) of dose response curve; acetylcholine added at 20% of maximum response; CHO-K1 human M4/Gαqi5, FLIPR Tetra. A digest of the protocol: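 CHO-K1 cells were loaded with calcium dye at 37 °C for ~1 h. Fluorescence (ex 470–495/em 515–575 nm) was read for 4 min after test compound at increasing concentrations, then 3.5 min after acetylcholine at an EC20; sometimes a third addition at EC70 followed. The value is the inflection point of a 4-parameter logistic fit.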
In general, EC50 refers to the concentration that produces a half-maximal response. For the compound `COc1ccc(OC2CCN(c3nnc(C(=O)NC4CCc5ccncc5C4)cc3C)CC2)cn1` (stereo not shown) [Example 159, 6-{4-[(6-methoxypyridin-3-yl)oxy]piperidin-1-yl}-5-methyl-N-(5,6,7,8-tetrahydroisoquinolin-7-yl)pyridazine-3-carboxamide], a half-maximal effect (EC50) was put at 293 nM.

`COc1ccc(OC2CCN(c3nnc(C(=O)NCc4ccc5c(c4)OCO5)cc3C)CC2)cn1` [Example 166, N-(1,3-benzodioxol-5-ylmethyl)-6-{4-[(6-methoxypyridin-3-yl)oxy]piperidin-1-yl}-5-methylpyridazine-3-carboxamide] returned a half-maximal effective concentration (EC50) of 400 nM.

Take `COc1ccc(OC2CCN(c3ncncc3Br)CC2)cn1` [Example 95D, 5-bromo-4-(4-((6-methoxypyridin-3-yl)oxy)piperidin-1-yl)pyrimidine]: a half-maximal response (EC50) required 928 nM.

For `CNC(=O)c1cc(C)c(N2CCC(Oc3ccc(OC)nc3)CC2)nn1` [Example 129, 6-{4-[(6-methoxypyridin-3-yl)oxy]piperidin-1-yl}-N,5-dimethylpyridazine-3-carboxamide], the EC50 was 121 nM.

Consider `COc1ccc(OC2CCN(c3nc(OC)ncc3C#N)CC2)cc1` [Example 18, 2-methoxy-4-(4-(4-methoxyphenoxy)piperidin-1-yl)pyrimidine-5-carbonitrile], for which the EC50 worked out at 1890 nM.

As to `Cc1ncc(C)c(N2CCC(Oc3ccc4[nH]ncc4c3)CC2)n1` [Example 59, 5-((1-(2,5-dimethylpyrimidin-4-yl)piperidin-4-yl)oxy)-1H-indazole], it took 66 nM to reach a half-maximal effect (EC50).

For the compound `Cc1ncc(C)c(N2CC[C@@H](Oc3cccc(C#N)c3)[C@H](F)C2)n1` [Example 71, 3-(((3R,4R)-1-(2,5-dimethylpyrimidin-4-yl)-3-fluoropiperidin-4-yl)oxy)benzonitrile], the half-maximal effective concentration (EC50) turned out to be 135 nM.

In turn, `CONC(=O)c1cc(C)c(N2CCC(Oc3ccc(OC)nc3)CC2)nn1` [Example 128, N-methoxy-6-{4-[(6-methoxypyridin-3-yl)oxy]piperidin-1-yl}-5-methylpyridazine-3-carboxamide] returned an EC50 of 121 nM.

Compound `COc1ccc(OC2CCN(c3ncnc(N)c3C)CC2)cn1` [Example 89, 6-(4-((6-methoxypyridin-3-yl)oxy)piperidin-1-yl)-5-methylpyrimidin-4-amine] showed an EC50 of 1610 nM.

As for `Cc1c(Cl)ncnc1N1CCC(Oc2ccc3nn(C)cc3c2)CC1` [Example 66, 5-((1-(6-chloro-5-methylpyrimidin-4-yl)piperidin-4-yl)oxy)-2-methyl-2H-indazole], the EC50 was 106 nM.

Consider `COC(=O)c1cc(C)c(N2CCC(Oc3cccc(C#N)c3)CC2)nn1` [Example 58, methyl 6-(4-(3-cyanophenoxy)piperidin-1-yl)-5-methylpyridazine-3-carboxylate], for which a half-maximal effect (EC50) was put at 64 nM.

Take `Cc1cc(C(=O)NCc2ccncc2)nnc1N1CCC(Oc2ccc3[nH]ncc3c2)CC1` [Example 111, 6-[4-(1H-indazol-5-yloxy)piperidin-1-yl]-5-methyl-N-(pyridin-4-ylmethyl)pyridazine-3-carboxamide]: the EC50 was 40 nM.

As for `COc1ccc(OC2CCN(c3nnc(C(=O)Nc4cccnc4)cc3C)CC2)cn1` [Example 137, 6-{4-[(6-methoxypyridin-3-yl)oxy]piperidin-1-yl}-5-methyl-N-pyridin-3-ylpyridazine-3-carboxamide], the EC50 amounted to 175 nM.
